Assay results published in US7582786B2, “Synthetic catalytic free radical scavengers useful as antioxidants for prevention and therapy of disease” (Eukarion Inc., priority 1996, dated 2009).
Values belong to the molecule of their own block, whether it stands above or below them.

Columns and labels:
[1] = SOD activity, xanthine/xanthine oxidase with cytochrome C as acceptor (Example 2); assay type: biochemical; conditions: for SOD: relative to C7 (C7 = 100)
Description: Superoxide dismutase (SOD) activity was assayed by following the inhibition of the reduction of an electron acceptor molecule in the presence of the free-radical generating system xanthine/xanthine oxidase (McCord et al. (1973) Superoxide and Superoxide Dismutase in “Oxidases and Related Redox Systems, vol. I, King et al. eds., University Park press, Baltimore, pp. 51-76). The assay mixture consisted of 50 mM sodium phosphate, pH 7.8, 120 μM xanthine, 0.2 units/ml xanthine oxidase, with acceptor molecule and salen manganese compound, as indicated. Assays were conducted at 27±0.2° C. using a water-jacketed cell holder in a Beckman DU7400 spectrophotometer. In most cases, oxidized cytochrome c, at 0.13 mg/ml, was employed as acceptor and its reduction was monitored spectrophotometrically at 550 nm. In some experiments, nitroblue tetrazolium (NBT), at 80 μM, was substituted for cytochrome c as the acceptor. NBT reduction was also monitored at 550 nm. An estimated extinction coefficient for NBT reduction, 20,800 M^−1cm^−1, determined empirically by exhaustive reduction of NBT in the reaction mixture described above, was employed where indicated. […] Conversion of xanthine to urate was calculated using ε290's of […] for urate and 4050 M^−1cm^−1 for xanthine. […] For each compound, at least four different concentrations were tested in duplicate.

[2] = Peroxidase activity, H2O2-dependent oxidation of ABTS (Example 2); assay type: biochemical; conditions: for Peroxidase: relative to C7 (C7 = 100)
Description: Peroxidase activity was assayed by monitoring the hydrogen peroxide-dependent oxidation of 2,2′-azino-bis(3-ethylbenzthiazoline-6) sulfonic acid (ABTS) spectrophotometrically. Standard assay mixtures consisted of 50 mM sodium phosphate, pH 8.1, 0.9% sodium chloride, 0.5 mM ABTS, and H2O2 and salen manganese complex as indicated. Where indicated, 50 mM sodium phosphate buffers of pH 6.0 or pH 7.1 were substituted. Assays were conducted at 27±0.2° C. ABTS oxidation was monitored at 740 or 500 nm to eliminate interference by the salen manganese complexes, many of which absorb in the vicinity of the λmax of oxidized ABTS, and to avoid absorbance values that exceeded the linear range of the spectrophotometer. The amount of oxidized ABTS was estimated using an Δε740 of 20,300 M^−1cm^−1 or an Δε500 of 3400 M^−1cm^−1 calculated based upon the published molar extinction coefficient oat 405 nm (36,800).
(§1) Catalase and peroxidase activities were assayed as described in Example 2. Catalase assays contained 10 μM salen-manganese complex and 10 mM hydrogen peroxide. Peroxidase assays contained 10 μM salen-manganese complex and 0.2 mM hydrogen peroxide. Glucose-glucose oxidase toxicity assays were performed using human dermal fibroblasts as described in Example 2.

[3] = system: Human dermal fibroblasts (HF cells); assay: Cell protection assay, glucose/glucose oxidase toxicity, XTT; assay type: cell-based
Description: Human dermal fibroblasts (HF cells) were obtained from the American type tissue Culture Collection at passage 1 and cultured and propagated in a medium (HF medium) consisting of Dulbecco's Modified Eagle's Medium with 4.5 g/l D-glucose, 10% calf serum 4 mM glutamine, 50 units/ml penicillin, and 50 μg/ml streptomycin in a 37° C. humidified incubator equilibrated with 5% CO2. Cells were used at passages 5 or 6 for experiments. For cell protection assays, HF cells were seeded at a density of about 15,000 cells per cm2 onto 96-well culture plates and allowed to grow to confluence. To assess protection tert-butylhydroperoxide (t-BHP) toxicity, confluent cell layers were first treated with the indicated concentrations of test compounds dissolved in HF medium for 18 hr. The medium was then replaced with fresh medium containing test compounds and 0.5 mM tert-butylhydroperoxide (t-BHP) and cells were incubated for another 18 hr. The medium was then removed and replaced with fresh HF medium (100 μl per well) without test compounds or t-BHP. Fifty μl of XTT reagent (Boeringer Mannheim, Inc.), prepared as described by the manufacturer, was then added to each well and the plates returned to the incubator. After 2 hr., the absorbance at 490 nm was measured in a BioRad (Richmond, Calif.) Model 3550 plate-reader, using a reference wavelength of 655 nm. Control cells that had not been exposed to test compounds or toxic agents were included among the samples treated with XTT reagent. Absorbance measurements for blank wells, containing HF medium and XTT reagent but no cells, were also determined. To analyze protection from glucose/glucose oxidase toxicity, confluent cell layers were incubated with HF medium containing glucose oxidase (0.019 units/ml) along with test compounds, as indicated, for 18 hr in the tissue culture incubator. Fresh HF medium was then added and cell viability assessed using the XTT reagent as described above. For both these models, concentrations of toxic agents were selected that were reproducibly completely lethal. Cytotoxicity assessments were routinely confirmed by visual inspection of the cell layers prior to addition of the XTT reagent.
as §1

[4] = Catalase activity, conversion of H2O2 to oxygen, polarographic oxygen electrode (Example 2); assay type: biochemical; conditions: for Catalase endpt. / Catalase rate: relative to C7 (C7 = 100)
Description: Catalase activity was assayed by monitoring the conversion of H2O2 to oxygen using a Clark-type polarographic oxygen electrode. The apparatus consisted of a Mini Clark Style electrode, a 600 μl Oxygen Uptake Chamber, and a Chemical Microsensor system, all obtained from Diamond General Corporation (Ann Arbor, Mich.). The electrode was calibrated by immersion in nitrogen- or air-equilibrated buffers using a Dual Chamber Calibration Cell (Diamond General,. Corp.). Catalase reaction mixtures consisted of 50 mM sodium phosphate, pH 8.1, 0.9% sodium chloride, and salen manganese complex and H2O2 at the indicated concentrations. The temperature of the water-jacketed reaction chamber, as well as the calibration buffers, was maintained at 25±0.1° C. Data were collected at 1 sec intervals and stored-on a MacIntosh II computer using data acquisition hardware and software by Strawberry Tree, Inc. (Sunnyvale, Calif.). Dissolved oxygen concentrations were calculated as described previously (Del Rio et al. (1977) Anal. Biochem. 80: 409) based on a value of 2.5×10^−4 M oxygen for air-saturated buffer at 25° C. Linearity of the dissolved oxygen measurements within the experimental range was continued by determining the amount of oxygen generated from known quantities of H2O2 during exhaustive treatment with bovine liver catalase. Stock solutions of H2O2 were prepared by diluting a commercial 30% H2O2 solution in water and the H2O2 concentrations in these stocks were determined by absorbance at 240 nm, using a molar extinction coefficient of 44 (Stadtman, E R. et al. (1990) Proc. Natl. Acad. Sci. USA 87: 384). […] In the absence of salen manganese complex, H2O2 alone typically produced an early, relatively slow increase in signal. The slope of this increased signal was not proportional to H2O2 concentration (for example in one experiment, 1 and 10 Mm H2O2 yielded apparent rates of 12 and 14 μM oxygen per min, respectively) and may be due to an electrode artifact. […] Where presented, initial rates were calculated by determining the slope of the linear portion of time dependent plots of oxygen generation, usually comprising the first five seconds of the reaction. Unless otherwise indicated, these were corrected by subtracting the rate obtained with H2O2 alone. Where presented, endpoint oxygen generated was calculated from time-dependent plots, such as those shown in FIG. 14, as the difference between the baseline oxygen concentration immediately prior to substrate addition and the maximal oxygen concentration achieved during the course of the reaction. All reactions subjected to these calculations were run for a sufficient time to ensure that oxygen generation had ceased.
as §1

[5] = 29 units/ml bovine liver catalase added, 10 mM H2O2

SOD [1]: 100
Molecule: COc1ccc2c(c1)C=NCCN=Cc1cc(OC)ccc1[O][Mn]([O]C(C)=O)[O]2 [Compound C38]
Peroxidase rate ([2]; 10 μM salen manganese complex, 0.2 mM H2O2): 19.8 ± 0.4 μM ABTS oxidized/min
Peroxidase [2]: 129
protection against glucose and glucose oxidase ([3]; 80 μM, glucose oxidase 0.019 units/ml): highly protective

SOD [1]: 130
Catalase endpt. [4]: 379
Catalase rate [4]: 231
Molecule: COc1cc2c(c(OC)c1)[O][Mn]([O]C(C)=O)[O]c1c(cc(OC)cc1OC)C=NCCN=C2 [Compound C42]
Peroxidase [2]: 171

SOD [1]: 57
Catalase endpt. [4]: 494
Catalase rate [4]: 446
Molecule: CC(=O)[O][Mn]1[O]c2ccccc2C=Nc2cccnc2N=Cc2ccccc2[O]1 [Compound C43]
Peroxidase [2]: 71

SOD [1]: 83
Catalase endpt. [4]: 674
Catalase rate [4]: 357
Molecule: COc1cccc2c1[O][Mn]([O]C(C)=O)[O]c1c(cccc1OC)C=Nc1ncccc1N=C2 [Compound C45]
Peroxidase [2]: 24

SOD [1]: 91
Catalase endpt. [4]: 741
Catalase rate [4]: 485
Molecule: COc1cccc2c1[O][Mn]([O]C(C)=O)[O]c1c(cccc1OC)C=Nc1ccccc1N=C2 [Compound C48]
Peroxidase [2]: 88

SOD [1]: 88
Catalase endpt. [4]: 285
Catalase rate [4]: 123
Molecule: COc1cccc2c1[O][Mn]([Cl])[O]c1c(cccc1OC)C=NC1CCCCC1N=C2 (stereo not drawn) [Compound C49]
Peroxidase [2]: 138

SOD activity (in words) [1]: noncatalytic SOD activity
SOD [1]: Noncatalytic
Catalase endpt. [4]: 0
Catalase rate [4]: 0
Molecule: [O]=[V]1[O]c2ccccc2C=NCCN=Cc2ccccc2[O]1 [Compound C53]
Peroxidase [2]: 0

SOD [1]: 200
Molecule: O=[N+]([O-])[Mn]1[O]c2ccccc2C=NCCN=Cc2ccccc2[O]1 [Compound C56]
Peroxidase [2]: 107

SOD [1]: 0
Molecule: C1=NCCN=Cc2ccccc2[O][Zn][O]c2ccccc21 [Compound C60]
Peroxidase [2]: 0

SOD [1]: 0
Molecule: C1=NCCN=Cc2ccccc2[O][Cu][O]c2ccccc21 [Compound C63]
Peroxidase [2]: 0

SOD [1]: 94
Catalase endpt. [4]: 256
Catalase rate [4]: 159
Molecule: CCOc1cccc2c1[O][Mn]([Cl])[O]c1c(cccc1OCC)C=NCCN=C2 [Compound C67]
Peroxidase [2]: 134

SOD [1]: 88
Catalase endpt. [4]: 326
Catalase rate [4]: 196
Molecule: CCOc1cccc2c1[O][Mn]([O]C(C)=O)[O]c1c(cccc1OCC)C=NCCN=C2 [Compound C68]
Peroxidase [2]: 162

SOD [1]: 38
Catalase endpt. [4]: 19
Catalase rate [4]: 31
Molecule: CC(=O)[O][Mn]1[O]c2ccccc2C(C)=NCCN=C(C)c2ccccc2[O]1 [Compound C85]
Peroxidase [2]: 0

effect on rate of cytochrome C reduction by xanthine oxidase ([1]; 29 units/ml): did not affect
rate of oxygen production ([4]; 19 units/ml, 2.3 mM H2O2): ~0.33 mM/min
B1: bovine liver catalase: bovine liver catalase enzyme used as reference (protein, UniProt P00432 2-527, looked up)
Catalase: ADNRDPASDQMKHWKEQRAAQKPDVLTTGGGNPVGDKLNSLTVGPRGPLLVQDVVFTDEMAHFDRERIPERVVHAKGAGAFGYFEVTHDITRYSKAKVFEHIGKRTPIAVRFSTVAGESGSADTVRDPRGFAVKFYTEDGNWDLVGNNTPIFFIRDALLFPSFIHSQKRNPQTHLKDPDMVWDFWSLRPESLHQVSFLFSDRGIPDGHRHMNGYGSHTFKLVNANGEAVYCKFHYKTDQGIKNLSVEDAARLAHEDPDYGLRDLFNAIATGNYPSWTLYIQVMTFSEAEIFPFNPFDLTKVWPHGDYPLIPVGKLVLNRNPVNYFAEVEQLAFDPSNMPPGIEPSPDKMLQGRLFAYPDTHRHRLGPNYLQIPVNCPYRARVANYQRDGPMCMMDNQGGAPNYYPNSFSAPEHQPSALEHRTHFSGDVQRFNSANDDNVTQVRTFYLKVLNEEQRKRLCENIAGHLKDAQLFIQKKAVKNFSDVHPEYGSRIQALLDKYNEEKPKNAVHTYVQHGSHLSAREKANL
peroxidase activity toward ABTS ([2]; 19 units/ml, pH 6.0, 7.1, 8.1): no peroxidase activity
reduction of initial rate of ABTS oxidation by C7 [2, 5]: 55%
total ABTS oxidized by C7 [2, 5]: 18 µM
protection against glucose and glucose oxidase ([3]; 290 units/ml): full protection
protection against glucose and glucose oxidase ([3]; ten-fold lower dose than 290 units/ml): only partially protective
